Biological target: T1, human DGAT1 enzyme (Homo sapiens, UniProt O75907)
T1 construct: made in house; host or cells: Sf9 insect cells (microsomal membranes)
T1 sequence (O75907 1-488): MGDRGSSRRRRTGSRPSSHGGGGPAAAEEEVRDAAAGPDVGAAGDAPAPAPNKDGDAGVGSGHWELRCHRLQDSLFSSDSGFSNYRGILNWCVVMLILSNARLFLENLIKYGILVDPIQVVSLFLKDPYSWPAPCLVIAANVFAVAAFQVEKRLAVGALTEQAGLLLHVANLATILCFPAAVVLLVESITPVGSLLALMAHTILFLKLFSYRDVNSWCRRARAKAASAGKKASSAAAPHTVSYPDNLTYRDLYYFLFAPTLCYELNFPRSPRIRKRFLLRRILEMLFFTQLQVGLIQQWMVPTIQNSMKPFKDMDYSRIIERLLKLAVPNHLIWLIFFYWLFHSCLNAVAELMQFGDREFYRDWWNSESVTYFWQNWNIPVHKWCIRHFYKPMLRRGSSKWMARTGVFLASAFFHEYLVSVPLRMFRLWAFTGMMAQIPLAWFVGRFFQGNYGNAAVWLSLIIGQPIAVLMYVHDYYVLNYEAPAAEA
Assay: in vitro DGAT1 inhibition assay (microsomes, [14C]-palmitoyl-CoA, SPA beads)
Assay type: biochemical
Conditions: human DGAT1 expressed in Sf9 insect cells, microsomes; 2 hours at room temperature; read-out: IC50
Experimental: The in vitro assay to identify DGAT1 inhibitors uses human DGAT1 enzyme expressed in Sf9 insect cells prepared as microsomes. The reaction was initiated by the addition of the combined substrates 1,2-dioleoyl-sn-glycerol and [^14C]-palmitoyl-Co A and incubated with test compounds and microsomal membranes for 2 hours at room temperature. The assay was stopped by adding 0.5 mg wheat germ agglutinin beads in assay buffer with 1% Brij-35 and 1% 3-cholamidopropyldimethyl-ammonio-1-propane sulfonate. Plates were sealed with TopSeal and incubated for 18 hours to allow the radioactive triglyceride product to come into proximity with the bead. Plates were read on a TopCount instrument.
Percent inhibition was calculated as the percent of (test compound inhibition minus non-specific binding) relative to (total binding minus non-specific binding). IC50 values were determined by curve fitting the data to a Sigmoidal dose-response in GraphPad Prism utilizing the following equation:
Y=A+(B−A)/(1+10̂((Log IC50−X))),
where A and B are the bottom and top of the curve (highest and lowest inhibition), respectively, and X is the logarithm of concentration.

Question: For Cc1c(C(=O)Nc2ccc(N3CCC(OCc4cccc(C(=O)O)c4)CC3)nc2)sc2ccc(-c3ccccc3)cc12 [Example 51, 3-((1-(5-(3-methyl-5-phenylbenzo[b]thiophene-2-carboxamido)pyridin-2-yl)piperidin-4-yloxy)methyl)benzoic acid], which IC50 is on record?
Answer: 28 nM

Question: Which IC50 does the source give for Cc1c(C(=O)Nc2ccc(N3CCN(C(=O)Nc4ccccc4C(=O)O)CC3)nc2)sc2ccc(-c3ccccc3)cc12 [Example 53, 2-(4-(5-(3-methyl-5-phenylbenzo[b]thiophene-2-carboxamido)pyridin-2-yl)piperazine-1-carboxamido)benzoic acid] here?
Answer: 27 nM

Question: For Cc1c(C(=O)Nc2ccc(N3CCN(C(=O)Nc4ccccc4F)CC3)nc2)sc2ccc(-c3cccc(F)c3)cc12 [Example 54, N-(2-fluorophenyl)-4-(5-(5-(3-fluorophenyl)-3-methylbenzo[b]thiophene-2-carboxamido)pyridin-2-yl)piperazine-1-carboxamide], which IC50 is on record?
Answer: 220 nM

Question: With Cc1c(C(=O)Nc2ccc(N3CCN(C(=O)Nc4ccccc4F)CC3)nc2)sc2ccc(-c3ccc(F)cc3)cc12 [Example 55, N-(2-fluorophenyl)-4-(5-(5-(4-fluorophenyl)-3-methylbenzo[b]thiophene-2-carboxamido)pyridin-2-yl)piperazine-1-carboxamide] as the molecule, how does the IC50 read?
Answer: 78 nM

Question: For Cc1c(C(=O)Nc2ccc(-c3ccc(OCC(C)(C)C(=O)O)nc3)cc2)oc2ccc(-c3ccccc3)cc12 [Example 58, 2,2-dim ethyl-3-(5-(4-(3-methyl-5-phenylbenzofuran-2-carboxamido)phenyl)pyridin-2-yloxy)propanoic acid], which IC50 is on record?
Answer: 13 nM

Question: How did the IC50 turn out when Cc1c(C(=O)Nc2ccc(-c3ccc(OCC(C)(C)C(=O)O)nc3)nc2)oc2ccc(-c3ccccc3)cc12 [Example 59, 2,2-dimethyl-3-(5-(3-methyl-5-phenylbenzofuran-2-carboxamido)-2,3′-bipyridin-6′-yloxy)propanoic acid] was run?
Answer: 9 nM

Question: With COc1ccc(-c2ccc3oc(C(=O)Nc4ccc(N5CCC(OCc6cccc(C(=O)O)c6)CC5)nc4)c(C)c3c2)cc1 [Example 64, 3-((1-(5-(5-(4-methoxyphenyl)-3-methylbenzofuran-2-carboxamido)pyridin-2-yl)piperidin-4-yloxy)methyl)benzoic acid] as the molecule, how does the IC50 read?
Answer: 65 nM

Question: How did the IC50 turn out when CCOC(=O)c1ccccc1NC(=O)N1CCN(c2ccc(NC(=O)c3oc4ccc(-c5ccc(OC)cc5)cc4c3C)cn2)CC1 [Example 65, ethyl 2-(4-(5-(5-(4-methoxyphenyl)-3-methylbenzofuran-2-carboxamido)pyridin-2-yl)piperazine-1-carboxamido)benzoate] was run?
Answer: 454 nM

Question: CCOC(=O)c1ccccc1NC(=O)N1CCN(c2ccc(NC(=O)c3oc4ccc(-c5ccccc5OC)cc4c3C)cn2)CC1 [Example 68, ethyl 2-(4-(5-(5-(2-methoxyphenyl)-3-methylbenzofuran-2-carboxamido)pyridin-2-yl)piperazine-1-carboxamido)benzoate] was tested. Which IC50 did it give?
Answer: 2460 nM

Question: How did the IC50 turn out when COc1ccccc1-c1ccc2oc(C(=O)Nc3ccc(N4CCN(C(=O)Nc5ccccc5F)CC4)nc3)c(C)c2c1 [Example 69, N-(2-fluorophenyl)4-(5-(5-(2-methoxyphenyl)-3-methylbenzofuran-2-carboxamido)pyridin-2-yl)piperazine-1-carboxamide] was run?
Answer: 204 nM

Question: For COc1ccccc1-c1ccc2oc(C(=O)Nc3ccc(N4CCN(C(=O)Nc5ccccc5C(=O)O)CC4)nc3)c(C)c2c1 [Example 70], which IC50 is on record?
Answer: 1090 nM

Question: COc1ccccc1-c1ccc2oc(C(=O)Nc3ccc(N4CCC(COc5cccc(C(=O)O)c5)CC4)nc3)c(C)c2c1 [Example 71] was tested. Which IC50 did it give?
Answer: 171 nM

Question: For COC(=O)c1cccc(COC2CCN(c3ccc(NC(=O)c4oc5ccc(-c6ccccc6OC)cc5c4C)cn3)CC2)c1 [Example 72, methyl 3-((1-(5-(5-(2-methoxyphenyl)-3-methylbenzofuran-2-carboxamido)pyridin-2-yl)piperidin-4-yloxy)methyl)benzoate], which IC50 is on record?
Answer: 13300 nM

Question: Which IC50 does the source give for COc1ccccc1-c1ccc2oc(C(=O)Nc3ccc(N4CCC(OCc5cccc(C(=O)O)c5)CC4)nc3)c(C)c2c1 [Example 73, 3-((1-(5-(5-(2-methoxyphenyl)-3-methylbenzofuran-2-carboxamido)pyridin-2-yl)piperidin-4-yloxy)methyl)benzoic acid] here?
Answer: 108 nM

Question: How did the IC50 turn out when Cc1ccc(C(=O)O)cc1COC1CCN(c2ccc(NC(=O)c3oc4ccc(-c5ccccc5)cc4c3C)cn2)CC1 [Example 78, 4-methyl-3-((1-(5-(3-methyl-5-phenylbenzofuran-2-carboxamido)pyridin-2-yl)piperidin-4-yloxy)methyl)benzoic acid] was run?
Answer: 156 nM

Question: How did the IC50 turn out when Cc1c(C(=O)Nc2ccc(N3CC[C@@H](COc4ccc(C(=O)O)cc4)C3)nc2)oc2ccc(-c3ccccc3)cc12 [Example 80, (R)-4-((1-(5-(3-methyl-5-phenylbenzofuran-2-carboxamido)pyridin-2-yl)pyrrolidin-3-yl)methoxy)benzoic acid] was run?
Answer: 600 nM

Question: With Cc1c(C(=O)Nc2ccc(N3CC[C@H](COc4ccc(C(=O)O)cc4)C3)nc2)oc2ccc(-c3ccccc3)cc12 [Example 81, (S)-4-((1-(5-(3-methyl-5-phenylbenzofuran-2-carboxamido)pyridin-2-yl)pyrrolidin-3-yl)methoxy)benzoic acid] as the molecule, how does the IC50 read?
Answer: 1060 nM

Question: Which IC50 does the source give for Cc1c(C(=O)Nc2ccc(N3CCN(C(=O)Nc4ccccc4F)CC3)nc2)oc2ccc(-c3ncco3)cc12 [Example 82, N-(2-fluorophenyl)-4-(5-(3-methyl-5-(oxazol-2-yl)benzofuran-2-carboxamido)pyridin-2-yl)piperazine-1-carboxamide] here?
Answer: 104 nM

Question: How did the IC50 turn out when Cc1c(C(=O)Nc2ccc(N3CCC(OCc4cccc(C(=O)O)c4)CC3)nc2)oc2ccc(-c3ncco3)cc12 [Example 86, 3-((1-(5-(3-methyl-5-(oxazol-2-yl)benzofuran-2-carboxamido)pyridin-2-yl)piperidin-4-yloxy)methyl)benzoic acid] was run?
Answer: 305 nM

Question: How did the IC50 turn out when Cc1ccc2c(C)c(C(=O)Nc3ccc(N4CCC(OCc5cccc(C(=O)O)c5)CC4)nc3)oc2c1C [Example 87, 3-((1-(5-(3,6,7-trimethylbenzofuran-2-carboxamido)pyridin-2-yl)piperidin-4-yloxy)methyl)benzoic acid] was run?
Answer: 22 nM

Question: Which IC50 does the source give for Cc1c(C(=O)Nc2ccc(N3CCC(COc4cccc(C(=O)O)c4)CC3)nc2)oc2ccccc12 [Example 91, 3-((1-(5-(3-methylbenzofuran-2-carboxamido)pyridin-2-yl)piperidin-4-yl)methoxy)benzoic acid] here?
Answer: 84 nM

Question: For Cc1c(C(=O)Nc2ccc(N3CCC(COc4cccc(C(=O)O)c4)CC3)nc2)oc2ccc(Cc3ccccc3)cc12 [Example 93, 3-((1-(5-(5-benzyl-3-methylbenzofuran-2-carboxamido)pyridin-2-yl)piperidin-4-yl)methoxy)benzoic acid], which IC50 is on record?
Answer: 56 nM

Question: Cc1c(C(=O)Nc2ccc(N3CCC(COc4cccc(C(=O)O)c4)CC3)nc2)oc2ccc(Oc3ccccc3)cc12 [Example 94, 3-((1-(5-(3-methyl-5-phenoxybenzofuran-2-carboxamido)pyridin-2-yl)piperidin-4-yl)methoxy)benzoic acid] was tested. Which IC50 did it give?
Answer: 71 nM

Question: With Cc1c(C(=O)Nc2ccc(-c3ccc(OC4CCC(C(=O)O)CC4)nc3)nc2)oc2ccc(-c3ccccc3)cc12 (stereo not shown) [Example 95, 4-(5-(3-methyl-5-phenylbenzofuran-2-carboxamido)-2,3′-bipyridin-6′-yloxy)cyclohexanecarboxylic acid] as the molecule, how does the IC50 read?
Answer: 6 nM

Question: With “ethyl 2-(4-(5-(5-(4-methoxyphenyl)-3-methylbenzofuran-2-carboxamido)pyridin-2-yl)piperazine-1-carboxamido)benzoate [Example 66]” as the molecule, how does the IC50 read?
Answer: 454 nM
